Experimental data from publication PMC4602232, “Structural basis for recognition of Emi2 by Polo-like kinase 1 and development of peptidomimetics blocking oocyte maturation and fertilization” (Scientific Reports, 2015).
Entries after “also recorded” stand apart in the source; their conditions may differ. Non-standard residues stand in square brackets, D forms with d. No end group written: not given here. pT = C[C@@H](OP(=O)(O)O)[C@H](N)C(=O)O

B1: Phosphorylated Emi2 169-177 peptide (phospho-Thr176) (peptide)
peptide: FSQHKTS[pT]I-NH2
notes: Made on Rink amide resin, so probably a C-terminal amide (surmised); source: synthetic peptide (Fmoc SPPS, Rink amide resin, RP-HPLC)
B2: Phosphorylated Emi2 146-177 peptide (phospho-Thr152 and phospho-Thr176) (peptide, UniProt Q8CDI2 146-177, looked up)
peptide: SPLVTS[pT]IKTEDVVSNSQNSRLHFSQHKTS[pT]I
notes: as for B1

Key:
mouse oocyte maturation = conditions: cited from earlier work
From the text: In Xenopus and in mice, the general scheme of calcium-mediated signal transduction has been well established, but the detailed molecular mechanism has been elusive. For instance, Plk1 is involved in Emi2 phosphorylation and destabilization, but the mechanism of binding of Plk1 to Emi2 has not yet been determined. Plk1 is known to be involved in various cell cycle-related processes, and recently it received attention as a target of anticancer treatments.

[1] = tested on: Emi2^1–300-mCherry reporter in MII oocytes; assay: Emi2^1–300-mCherry degradation after parthenogenetic activation (time-lapse microscopy); type: cell-based, mouse; conditions: SrCl2 treatment in the presence of 100 nM BI2536; n = 3 oocytes
From the text: pRN3-Emi2^1−300-mCherry plasmids containing the Plk1 recognition site and a degron for a SCF family ubiquitin ligase were constructed from synthetic Emi2^1–300 gene fragments and subcloned into the pRN3 vector as an mCherry fusion by means of Gibson Assembly[50]. The plasmids were linearized by digestion with SfiI; then cRNA was synthesized with T3 mMessage mMachine (Life Technologies). In vitro transcripts were purified by phenol-chloroform extraction and isopropyl alcohol precipitation and stored at −80 °C until use.
GV stage oocytes were injected with various peptidomimetics at 300 μM in a 50% aqueous solution (w/v) of dimethyl sulfoxide. Peptidomimetics were injected into oocyte by means of a Eppendorf Femto Jet (Eppendorf AG, Hamburg, Germany) and a Nikon Diaphot ECLIPSE TE300 inverted microscope (Nikon UK Ltd., Kingston upon Thames, Surrey, UK) equipped with a Narishige MM0-202N hydraulic three-dimensional micromanipulator (Narishige Inc., Sea Cliff, NY, USA) and subjected to in vitro maturation as described above. As a control, the BG34 reagent with threonine residues instead of phosphothreonine[35] was injected into oocytes at 300 μM. To test the oocytes for parthenogenetic activation, we collected mature MII oocytes and injected them with various reagents as described above for GV oocytes. […]

bromodomain BRD4 = conditions: cited from earlier work
From the text: On the other hand, due to the high degree of similarity among kinase domains’ ATP-binding pockets, achieving good specificity is a difficult task. […] Because PBD exists only in the Plk family (Plk1 through Plk4), targeting of this site can result in high specificity along with enhanced binding affinity; these properties may faci ...

[2] = biological target: T1, Mouse Plk1 Polo box domain (Plk1-PBD, amino acid residues 367-603) (mouse, UniProt Q07832 367-603); assay: ITC; phosphorylated peptide (1.2 mM) injected into Plk1-PBD (0.1 mM) in the cell; 15 °C; 20 mM Tris-Cl pH 8.0, 300 mM NaCl, 3 mM DTT; one-site binding model; conditions: both partners purified
T1 construct: Polo-like kinase 1 (Plk1), mouse, polo box domain, residues 367-603; TEV site ENLYFQ/S between the His6 tag and the PBD; cleavage between Q and S should leave a Ser before residue 367 (surmised); also called polo box domain of Polo-like kinase 1; source: E. coli BL21 (DE3), purified (Ni-NTA, TEV digestion, Superdex 75 gel filtration); not shown: His6, N-terminal, cleaved
T1 sequence (Q07832 367-603): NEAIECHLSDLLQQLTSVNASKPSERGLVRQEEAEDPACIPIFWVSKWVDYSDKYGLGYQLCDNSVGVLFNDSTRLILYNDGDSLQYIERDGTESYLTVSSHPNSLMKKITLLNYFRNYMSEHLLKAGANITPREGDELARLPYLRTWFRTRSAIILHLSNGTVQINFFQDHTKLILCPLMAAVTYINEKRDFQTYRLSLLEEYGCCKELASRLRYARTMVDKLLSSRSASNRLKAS

Molecule | mouse oocyte maturation (in words) (mouse oocyte maturation) | decrease of Emi2-mCherry fluorescence after parthenogenetic activation (in words) [1] | binding and inhibition of BRD4 (in words) (bromodomain BRD4) | Kd [2] [µM] | stoichiometry N [2]
CC[C@@H]1C(=O)N(C)c2cnc(Nc3ccc(C(=O)NC4CCN(C)CC4)cc3OC)nc2N1C1CCCC1 [BI2536] | impairs mouse oocyte maturation | did not cause any reduction in fluorescence even after 100 min; also recorded: blocks Emi2 degradation after parthenogenetic activation by SrCl2 | bind and inhibit bromodomain BRD4 at nanomolar concentration | – | –
B1 | – | – | – | 29.6 | 0.92 ratio of Emi2^169–177 to Plk1-PBD
B2 | – | – | – | – | 0.47 ratio of Emi2^146–177 to Plk1-PBD
